Values of other authors, collected in article PMC8313041 (Heterocyclic communications, 2015).

Assays:
[1] = tested on: human leukemic T-cell lines

## Nc1nc2c(ncn2[C@@H]2O[C@H](CO)[C@@H](O)[C@@H]2F)c(=O)[nH]1 [Compound 3, 9-(2′-deoxy-2′-fluoro-β-D-arabinofuranosyl)guanine]
[1]
  activity against human leukemic T-cell lines: displays activity against human leukemic T-cell lines

## Nc1ncnc2c1ncn2[C@@H]1O[C@H](CO)[C@@H](F)[C@@H]1F [Compound 2, 9-(2′,3′-dideoxy-2′,3′-difluoro-β-D-arabinofuranosyl)adenine]
HIV-1
  in vitro potency against HIV-1 compared with lodenosine: more potent in vitro against HIV-1 than lodenosine 1

## Nc1ncnc2c1ncn2[C@@H]1O[C@H](CO)C[C@@H]1F [lodenosine, 2′-β-fluoro-2′,3′-dideoxyadenosine]
HIV-1
  in vitro activity against HIV-1: displays in vitro activity against HIV-1
